Data reported in patent US9469611B2, “Use of dihydroimidazolones for the treatment of dogs” (BOEHRINGER INGELHEIM VETMEDICA GMBH, priority 2002, dated 2016).
Values joined by “and” are separate entries in the source; they are usually repeats but may differ in a detail not shown here. Identical values can stand only once. Like-named read-outs stand apart in the source and are kept apart here. Marks after values point to notes of the source that are not given here.

Experiments:
[1] = plasma concentration of AWD 131-138 (HPLC/mass spectrometry); format: in vivo, dog; details: for concentration at 12 h: 12 hours after application
Experimental: A pharmacokinetic study was performed at the beginning of treatment in 2 dogs with AWD 131-138 monotherapy and in 4 dogs with a combination therapy of AWD 131-138 and phenobarbital or primidone. All 6 dogs received 5 mg/kg bodyweight AWD 131-138. Blood was taken 3 times every 2 hours. […] The same method was used as a compliance control during the follow up examinations. Blood was taken two and twelve hours after oral administration of AWD 131-138.
In six dogs entering the pilot study with AWD 131-138 a pharmacokinetic study was performed. AWD 131-138 was measured in plasma samples two, four and six hours after application. The initial dosage of AWD 131-138 was 5 mg/kg bodyweight p.o. in all cases.

[2] = monkeys; cited from earlier work
[3] = tested on: benzodiazepine binding site of the GABAA receptor; details: broad receptor screen; cited from earlier work
[4] = self administration paradigm; cited from earlier work
benzodiazepine receptor = details: co administration of flumazenil; cited from earlier work
calcium channel = details: cited from earlier work
[5] = side effects: owner questionnaire and follow up examinations with blood work
[6] = tested on: cloned human GABA receptor complexes; details: cited from earlier work
[7] = tested on: dogs with newly diagnosed idiopathic epilepsy; experiment: monotherapy in dogs with newly diagnosed idiopathic epilepsy (AWD 131-138 pilot study; retrospective phenobarbital, primidone)
[8] = tested on: dogs with chronic idiopathic epilepsy; experiment: add-on therapy in dogs with chronic idiopathic epilepsy not responding to phenobarbital or primidone; format: in vivo, dog
[9] = tested on: chemically induced seizure threshold; details: dogs, cited from earlier work
[10] = 12 newly diagnosed dogs, monotherapy
[11] = add-on, abnormalities already at the beginning of the study
[12] = grand mal seizures, baseline before monotherapy
[13] = grand mal seizures, monotherapy
[14] = median group value, baseline before monotherapy
[15] = median group value, monotherapy, asterisk = P<0.05 vs before
[16] = grand mal seizures, add-on to phenobarbital or primidone
[17] = grand mal seizures, on phenobarbital or primidone before add-on
[18] = median, on phenobarbital/primidone before add-on

O=C1N=C(N2CCOCC2)CN1c1ccc(Cl)cc1 [AWD 131-138, 1-(4-chlorophenyl)-4-(4-morpholinyl)-2,5-dihydro-1H-imidazol-2-one]
AWD 131-138 plasma concentration ([1]; 2 hours after 5 mg/kg p.o., AWD 131-138 monotherapy, individual dogs): 720.0 ng/mL and 2579.2 ng/mL
AWD 131-138 plasma concentration ([1]; 2 hours after 5 mg/kg p.o., phenobarbital combination therapy, individual dogs): 23.27 ng/mL and 1019.5 ng/mL
AWD 131-138 plasma concentration ([1]; 2 hours after 5 mg/kg p.o., primidone combination therapy, individual dogs): 2392.3 ng/mL
AWD 131-138 plasma concentration ([1]; 4 hours after 5 mg/kg p.o., AWD 131-138 monotherapy, individual dogs): 702.7 ng/mL and 1461.0 ng/mL
AWD 131-138 plasma concentration ([1]; 4 hours after 5 mg/kg p.o., phenobarbital combination therapy, individual dogs): Bld
AWD 131-138 plasma concentration ([1]; 4 hours after 5 mg/kg p.o., primidone combination therapy, individual dogs): 1021.5 ng/mL and 2438.7 ng/mL
AWD 131-138 plasma concentration ([1]; 6 hours after 5 mg/kg p.o., AWD 131-138 monotherapy, individual dogs): 229.5 ng/mL and 709.0 ng/mL
AWD 131-138 plasma concentration ([1]; 6 hours after 5 mg/kg p.o., phenobarbital combination therapy, individual dogs): bld (bld (below limit of detection): <2 ng/mL)
AWD 131-138 plasma concentration ([1]; 6 hours after 5 mg/kg p.o., primidone combination therapy, individual dogs): 448.1 ng/mL and 1289.0 ng/mL
concentration at 2 h ([1]; dog, plasma, oral, 5 mg/kg bodyweight, 2 hours after 5 mg/kg p.o., primidone combination therapy, individual dogs, read-out: AWD 131-138 plasma concentration): 1520 ng/mL
concentration at 4 h ([1]; dog, plasma, oral, 5 mg/kg bodyweight, 4 hours after 5 mg/kg p.o., phenobarbital combination therapy, individual dogs): 174 ng/mL
concentration at 6 h ([1]; dog, plasma, oral, 5 mg/kg bodyweight, 6 hours after 5 mg/kg p.o., phenobarbital combination therapy, individual dogs): 19.5 ng/mL
concentration at 2 h ([1]; dog, plasma, oral, 30 mg/kg, 2 hours after application, 30 mg/kg, non responder dog that died in status epilepticus, read-out: AWD 131-138 plasma concentration): 4000 ng/mL
concentration at 2 h ([1]; dog, plasma, oral, 40 mg/kg/day, 2 hours after application, 40 mg/kg per day, two dogs with ataxia on combined phenobarbital treatment, read-out: AWD 131-138 plasma concentration, range): 5560 to 10900 ng/mL
concentration at 2 h ([1]; dog, plasma, oral, chronic epilepsy add on, 2 hours after application, 10-15 mg/kg twice a day, seventeen dogs, read-out: AWD 131-138 plasma concentration, range): 280 to 10600 ng/mL
concentration at 2 h ([1]; dog, plasma, oral, chronic epilepsy add on, 2 hours after application, read-out: AWD 131-138 plasma concentration, mean): 3900 ng/mL
concentration at 2 h ([1]; dog, plasma, oral, chronic epilepsy add on, 2 hours after application, read-out: AWD 131-138 plasma concentration, median): 2990 ng/mL
concentration at 12 h ([1]; dog, plasma, oral, chronic epilepsy add on, read-out: AWD 131-138 plasma concentration, mean): 644 ng/mL
concentration at 12 h ([1]; dog, plasma, oral, chronic epilepsy add on, read-out: AWD 131-138 plasma concentration, median): 179 ng/mL
concentration at 12 h ([1]; dog, plasma, oral, chronic epilepsy add on, read-out: AWD 131-138 plasma concentration, range): 7.57 to 5870 ng/mL
concentration at 2 h ([1]; dog, plasma, oral, newly diagnosed dogs, three weeks of treatment, 2 hours after oral application, 10-20 mg/kg twice a day, eleven cases, read-out: AWD 131-138 plasma concentration, range): 53.3 to 8620 ng/mL
concentration at 12 h ([1]; dog, plasma, oral, newly diagnosed dogs, three weeks, twelve dogs, read-out: AWD 131-138 plasma concentration, range): 5.4 to 1140 ng/mL
concentration at 12 h ([1]; dog, plasma, oral, newly diagnosed dogs, three weeks, read-out: AWD 131-138 plasma concentration, mean): 378 ng/mL
concentration at 12 h ([1]; dog, plasma, oral, newly diagnosed dogs, three weeks, read-out: AWD 131-138 plasma concentration, median): 218 ng/mL
concentration at 2 h ([1]; dog, plasma, po, newly diagnosed dogs, three weeks, 2 hours after oral application, read-out: AWD 131-138 plasma concentration, mean): 3360 ng/mL
concentration at 2 h ([1]; dog, plasma, po, newly diagnosed dogs, three weeks, 2 hours after oral application, read-out: AWD 131-138 plasma concentration, median): 2580 ng/mL
identified as benzodiazepine like [2]: did not identify AWD 131-138 as benzodiazepine like
affinity for the benzodiazepine binding site [3]: very low affinity
substitution for cocaine [4]: did not substitute for cocaine
antagonism of anticonvulsive activity by flumazenil (benzodiazepine receptor): partly antagonised
antagonism of anxiolytic activity by flumazenil (benzodiazepine receptor): fully antagonised
calcium channel blocking effect (calcium channel): weak calcium channel blocking effect
sedation [5, 10]: no sedation occurred
tolerability [5, 10]: exceptionally well tolerated
hematology and blood chemistry ([5]; 12 newly diagnosed dogs, monotherapy, follow up): No abnormalities were found
polyphagia, cases ([5]; 12 newly diagnosed dogs, monotherapy, in 4 dogs only at the beginning): 7 (58%)
tolerability ([5]; 17 dogs with chronic epilepsy, add-on): very well tolerated
hematology (red, white and differential cell count) ([5]; 17 dogs with chronic epilepsy, add-on, follow up): No abnormalities were found
polyphagia, cases ([5]; 17 dogs with chronic epilepsy, add-on, in 7 dogs only at the beginning): 10 (59%)
elevation of liver enzymes (ALT, GLDH and AP) ([5]; AWD 131-138 monotherapy): not observed
dogs with ataxia in the hind limbs and apathy 2 4 hours after application ([5]; add-on, 40 mg/kg per day, combined phenobarbital with serum concentrations 56.6 58.9 μg/mL): Two
dogs with elevation of ALT [5, 11]: 1
dogs with elevation of AP [5, 11]: 6
dogs with elevation of GLDH [5, 11]: 3
mode of action at the benzodiazepine receptor ([6]; different cloned human GABA receptor complexes): low affinity partial agonist at the benzodiazepine receptor without subtype selectivity
maximal stimulation ([6]; of the effect of diazepam): 20%
comparison of antiepileptic efficacy between monotherapy treatment groups ([7]; ANOVA): did not indicate any significant differences
duration of the ictus before treatment, median [7, 12]: 3.0 min
duration of the ictus before treatment, time range [7, 12]: 0.5 to 10 min
duration of the ictus during treatment, median [7, 13]: 2.5 min
duration of the ictus during treatment, time range [7, 13]: 0.5 to 10 min
% reduction of seizures in responders ([7]; mean ± SEM, monotherapy): 49.8 ± 11.3%
Seizure frequency before treatment, all dogs [7, 14]: 1.6 seizures/month
Seizure frequency before treatment, without nonresponders [7, 14]: 1.7 seizures/month
Seizure frequency during treatment, all dogs [7, 15]: 0.71 seizures/month
Seizure frequency during treatment, without nonresponders [7, 15]: 0.55* seizures/month
dogs that died or were euthanized in status epilepticus ([7]; monotherapy): One
dogs with focal seizures instead of grand mal seizures during treatment ([7]; monotherapy): two
dogs with reduced seizure number per cluster ([7]; monotherapy): 4
number of dogs with decreased duration of the ictus ([7]; monotherapy): five
number of dogs with shortened postictal phase ([7]; monotherapy): four
owners reporting subjectively a decrease of seizure severity ([7]; monotherapy): nine of 12
reduction of seizure number per cluster, mean ([7]; monotherapy): 45.3%
dogs in which clusters no longer developed ([7]; monotherapy, dogs with clusters before treatment): One
decrease of the duration of the ictus, mean ([7]; monotherapy, in the dogs with a decrease): 38%
comparison of antiepileptic efficacy between the two add on treatment schedules ([8]; Fisher's exact test): did not indicate any significant difference
decrease of number of seizures per cluster, mean ([8]; add-on): 39.5%
dogs in which clusters did not occur anymore ([8]; add-on): three
dogs in which focal seizures replaced grand mal seizures partially ([8]; add-on): nine
dogs with a seizure reduction under 50% ([8]; add-on): 4
dogs with decreased number of seizures per cluster ([8]; add-on): 4
dogs with worsening of seizure severity reported by owner ([8]; add-on): One
number of dogs with decreased duration of the ictus ([8]; add-on): 3
number of dogs with shortened postictal phase ([8]; add-on): ten
owners reporting subjectively a decrease of seizure severity ([8]; add-on): eight of seventeen
postictal phase during treatment, mean ([8]; add-on): 5.5 h
dogs that died or were euthanized in status epilepticus ([8]; add-on to phenobarbital or primidone): Nine
shortening of the postictal phase, mean ([8]; add-on, in the dogs with shortening): 54%
duration of the ictus during treatment, median [8, 16]: 2.0 min
duration of the ictus during treatment, time range [8, 16]: 0.5 to 5 min
duration of the ictus before treatment, median [8, 17]: 2.0 min
duration of the ictus before treatment, time range [8, 17]: 0.5 to 10 min
% reduction of seizures in responders ([8]; mean ± SEM, add-on to phenobarbital/primidone): 47.2 ± 8.8%
Seizure frequency during treatment, all dogs ([8]; median, add-on to phenobarbital/primidone): 2.0 seizures/month
Seizure frequency during treatment, without nonresponders ([8]; median, add-on to phenobarbital/primidone, asterisk = P<0.05): 1.1* seizures/month
Seizure frequency before treatment, all dogs [8, 18]: 1.9 seizures/month
Seizure frequency before treatment, without nonresponders [8, 18]: 2.4 seizures/month
increase of seizure threshold (PTZ convulsive threshold) ([9]; 20 mg/kg p.o.): 39%
increase of seizure threshold (PTZ convulsive threshold) ([9]; 40 mg/kg p.o.): 118%
